{
  "source": "patent US11351142B2",
  "about": "“Composition and method for treating neuronal ceroid lipofuscinosis” (Rush University Medical Center, priority 2012, dated 2022)",
  "key": {"[1]": {"test_system": "TPP1", "test": "TPP1 immunofluorescence of brain sections after oral gemfibrozil in WT, PPARα−/− and PPARβ−/− mice", "assay_type": "in vivo, mouse", "conditions": "oral 7.5 mg/kg body wt/day, 21 days", "from_the_text": "After 21 days of treatment, mice were sacrificed and their brains fixed, embedded, and processed. Sections were made from different brain regions and for immunofluorescence staining on fresh frozen sections, anti-mouse TPP1 (1:200), goat anti mouse GFAP (1:100) were used. The samples were mounted and observed under Olympus BX41 fluorescence microscope (26).\nOnce we confirmed the involvement of PPARα in the fibrate mediated upregulation of TPP1 protein, we further checked whether the same results could be replicated in in vivo settings. WT, PPARα^−/− and PPARβ^−/− mice from same background were treated orally for 21 days with 7.5 mg/kg body wt/day gemfibrozil dissolved in 0.1% methylcellulose, which was also used as vehicle. At the end of the treatment, the mice were killed and different regions of their brain, viz. Substantia nigra pars compacta, cortex, hippocampus, and dentate gyrus were sectioned, and immunofluorescence was performed for the presence of TPP1."}, "[2]": {"test_system": "tripeptidyl peptidase 1 (TPP1)", "test": "Double-labeling for TPP1 and β-tubulin (FIG. 11)", "assay_type": "cell-based", "conditions": "25 μM gemfibrozil and 10 μM fenofibrate, 24 hours", "from_the_text": "(§1) DAPI was used to visualize nuclei. Results represent 3 independent experiments."}, "[3]": {"test_system": "lysosome-associated membrane protein 2 (LAMP2)", "test": "Double-labeling for LAMP2 and β-tubulin in human neurons", "assay_type": "cell-based", "conditions": "25 μM gemfibrozil and 10 μM fenofibrate, 24 hours", "from_the_text": "as §1"}, "[4]": {"test_system": "Cln2 mRNA", "test": "Cln2 mRNA expression by RT-PCR and real-time PCR in human primary astrocytes", "assay_type": "cell-based", "procedure": "Primary human astroglia were prepared as described (20,21). […] Briefly, 11- to 17-week-old fetal brains obtained from the Human Embryology Laboratory (University of Washington, Seattle, Wash., USA) were dissociated by trituration and trypsinization. On 9th day, these mixed glial cultures were placed on a rotary shaker at 240 rpm at 37° C. for 2 h to remove loosely attached microglia. On 11th day, the flasks were shaken again at 190 rpm at 37° C. for 18 h to remove oligodendroglia. The attached cells remaining were primarily astrocytes. These cells were trypsinized and subcultured in complete media at 37° C. with 5% CO2 in air to yield more viable and healthy cells. […] Semi-quantitative RT-PCR was carried out as described earlier (24) using oligo (dT) 12-18 as primer and moloney murine leukemia virus reverse transcriptase (MMLV-RT, Invitrogen) in a 20 μl reaction mixture. The resulting cDNA was appropriately amplified using Promega Master Mix (Madison, Wis.) and the following primers (Invitrogen) for murine genes: The mRNA quantification was performed using the ABI-Prism7700 sequence detection system (Applied Biosystems, Foster City, Calif.) using iTaq™ Fast Supermix With ROX (Bio-Rad, Hercules, Calif.) and the following 6-FAM/ZEN/IBFQ-labeled primers for murine genes: Cln2 and Gapdh (Integrated DNA Technologies Coralville, Iowa). […]"}, "[5]": {"test_system": "lysosomal genes", "test": "Quantitative real-time PCR for lysosomal genes in mouse astrocytes", "assay_type": "cell-based", "conditions": "25 μM gemfibrozil, different time points, serum free", "procedure": "(§3) (FIG. 13A) Quantitative real-time PCR for lysosomal genes in mouse astrocytes treated with 25 μM gemfibrozil for different time points under serum free conditions. […] (FIG. 13B) RT-PCR for lysosomal genes in human astrocytes treated under same condition. […] Results represent 3 independent experiments."}, "[6]": {"test_system": "Cln2 mRNA", "test": "Cln2 mRNA expression by semi-quantitative RT-PCR and real-time PCR in mouse primary astrocytes", "assay_type": "cell-based", "experimental": "(§2) Astroglia were isolated from mixed glial cultures as described (17,18) according to the procedure of Giulian and Baker (19). Briefly, on day 9, the mixed glial cultures were washed three times with Dulbecco's modified Eagle's medium/F-12 and subjected to shaking at 240 rpm for 2 h at 37° C. on a rotary shaker to remove microglia. After 2 days, the shaking was repeated for 24 h for the removal of oligodendroglia and to ensure the complete removal of all nonastroglial cells. The attached cells were seeded onto new plates for further studies. Total RNA was isolated from mouse primary astrocytes and human primary astrocytes using RNA-Easy Qiagen (Valencia, Calif.) kit following manufactures protocol. Semi-quantitative RT-PCR was carried out as described earlier (24) using oligo (dT) 12-18 as primer and moloney murine leukemia virus reverse transcriptase (MMLV-RT, Invitrogen) in a 20 μl reaction mixture. The resulting cDNA was appropriately amplified using Promega Master Mix (Madison, Wis.) and the following primers (Invitrogen) for murine genes: The mRNA quantification was performed using the ABI-Prism7700 sequence detection system (Applied Biosystems, Foster City, Calif.) using iTaq™ Fast Supermix With ROX (Bio-Rad, Hercules, Calif.) and the following 6-FAM/ZEN/IBFQ-labeled primers for murine genes: Cln2 and Gapdh (Integrated DNA Technologies Coralville, Iowa). The mRNA expression of the targeted genes was normalized to the level of Gapdh mRNA and data was processed by the ABI Sequence Detection System 1.6 software."}, "[7]": {"test_system": "Cln3 mRNA", "test": "Cln3 mRNA expression by semi-quantitative RT-PCR in mouse primary astrocytes", "assay_type": "cell-based", "conditions": "25 μM gemfibrozil, 2, 6, 12, and 24 hrs", "experimental": "as §2, with “The mRNA quantification was performed using the ABI-Prism7700 sequence detection system (Applied Biosystems, Foster City, Calif.) using iTaq™ Fast Supermix With ROX (Bio-Rad, Hercules, Calif.) and the following 6-FAM/ZEN/IBFQ-labeled primers for murine genes: Cln2 and Gapdh (Integrated DNA Technologies Coralville, Iowa). The mRNA expression of the targeted genes was normalized to the level of Gapdh mRNA and data was processed by the ABI Sequence Detection System 1.6 software.” left out"}, "[8]": {"test_system": "primary human astrocytes", "test": "LysoTracker labeling of lysosomes in primary human astrocytes", "assay_type": "cell-based", "conditions": "25 μM gemfibrozil and 10 μM fenofibrate, 24 hrs", "from_the_text": "as §1"}, "[9]": {"test_system": "TPP1", "test": "Immunofluorescence for TPP1 in SH-SY5Y cells", "assay_type": "cell-based, human", "conditions": "25 μM gemfibrozil and 10 μM fenofibrate, 24 hrs", "experimental": "Immunocytochemistry was performed as described earlier (25). Briefly, 8 well chamber slides containing mouse primary astrocytes, mouse neurons, human primary astrocytes or SH-SY5Y cells were cultured to 70-80% confluence were fixed with chilled Methanol (Fisher Scientific, Waltham, Mass.) overnight, followed by two brief rinses with filtered PBS. Samples were blocked with 2% BSA (Fisher Scientific) in PBS containing Tween 20 (Sigma) and Triton X-100 (Sigma) for 30 min and incubated at room temperature under shaking conditions for 2 hr in PBS containing the following anti-mouse primary antibodies: […] Santa Cruz Biotech, Santa Cruz, Calif.), GFAP, (1:100; Santa Cruz), and 3-tubulin (1:5000; Millipore). After four 15 min washes in filtered PBS, the slides were further incubated with Cy2 or Cy5-labeled secondary antibodies (all 1:200; Jackson ImmunoResearch, West Grove, Pa.) for 1 hr under similar shaking conditions. Following four 15 minute washes with filtered PBS, cells were incubated for 4-5 min with 4′, 6-diamidino-2-phenylindole (DAPI, 1:10,000; Sigma). The samples were run in an EtOH and Xylene (Fisher) gradient, mounted and observed under Olympus BX41 fluorescence microscope."}, "[10]": {"test_system": "lysosomal genes", "test": "RT-PCR for lysosomal genes in human astrocytes", "assay_type": "cell-based", "conditions": "25 μM gemfibrozil, serum free", "procedure": "as §3"}, "[11]": {"test_system": "Cln1 mRNA", "test": "Cln1 mRNA expression by semi-quantitative RT-PCR in mouse primary astrocytes", "assay_type": "cell-based", "conditions": "25 μM gemfibrozil, 2, 6, 12, and 24 hrs", "experimental": "as §2, with “The mRNA quantification was performed using the ABI-Prism7700 sequence detection system (Applied Biosystems, Foster City, Calif.) using iTaq™ Fast Supermix With ROX (Bio-Rad, Hercules, Calif.) and the following 6-FAM/ZEN/IBFQ-labeled primers for murine genes: Cln2 and Gapdh (Integrated DNA Technologies Coralville, Iowa). The mRNA expression of the targeted genes was normalized to the level of Gapdh mRNA and data was processed by the ABI Sequence Detection System 1.6 software.” left out"}},
  "data": [
    {"smiles": "Cc1ccc(C)c(OCCCC(C)(C)C(=O)O)c1", "note": "[gemfibrozil]", "values": [
      {"measurement": "TPP1 in the dentate gyrus and CA1 region of the hippocampus (mostly non-neuronal cells)", "setting": "[1]; PPARβ−/− mice", "result": "increased"},
      {"measurement": "level of TPP1 in GFAP-positive astrocytes and tyrosine hydroxylase-positive neurons in the substantia nigra", "setting": "[1]; PPARβ−/− mice", "result": "increased"},
      {"measurement": "level of TPP1 in GFAP-positive cortical astrocytes and NeuN-positive cortical neurons", "setting": "[1]; PPARβ−/− mice", "result": "markedly increased"},
      {"measurement": "TPP1 in the dentate gyrus and CA1 region of the hippocampus (mostly non-neuronal cells)", "setting": "[1]; WT mice", "result": "increased"},
      {"measurement": "level of TPP1 in GFAP-positive astrocytes and tyrosine hydroxylase-positive neurons in the substantia nigra", "setting": "[1]; WT mice", "result": "increased"},
      {"measurement": "level of TPP1 in GFAP-positive cortical astrocytes and NeuN-positive cortical neurons", "setting": "[1]; WT mice", "result": "markedly increased"},
      {"measurement": "lysosomal marker protein TPP1 (double-labeling)", "setting": "[2]", "result": "upregulation"},
      {"measurement": "LAMP2 (double-labeling)", "setting": "[3]", "result": "upregulation"},
      {"measurement": "increase in Cln2 mRNA levels, maximum of time course", "setting": "[4]; 25 μM gemfibrozil, at 12 hrs", "result": "~10", "unit": "fold"},
      {"measurement": "increase in Cln2 mRNA levels, maximum of dose response", "setting": "[4]; 25 uM gemfibrozil, different concentrations for 12 hrs", "result": "~15", "unit": "fold"},
      {"measurement": "lysosomal genes mRNA (quantitative real-time PCR)", "setting": "[5]", "result": "upregulation"},
      {"measurement": "Cln2 mRNA expression", "setting": "[6]; PPARα−/− astrocytes, different concentrations, 24 hrs", "result": "little or no effect"},
      {"measurement": "Cln2 mRNA expression in presence of PPARγ antagonist", "setting": "[6]; WT astrocytes pre-treated with GW9662 for 30 min", "result": "increased expression"},
      {"measurement": "Cln2 level (quantitative real time PCR)", "setting": "[6]; astrocytes with RXRα knockdown (RXRα siRNA), gemfibrozil (10 μM), RA (0.5 μM) alone and in combination", "result": "almost unresponsive"},
      {"measurement": "increase in Cln2 mRNA levels (quantitative real time PCR)", "setting": "[6]; mouse primary astrocytes, 24 hrs, RA 0.5 μM, gemfibrozil 10 μM, combination 10 μM gemfibrozil and 0.5 μM RA", "result": "~4", "unit": "fold"},
      {"measurement": "Cln2 mRNA levels (RT-PCR and qPCR)", "setting": "[6]; mouse primary astrocytes, serum free media, different doses and time points, maximum increase at 24 hrs of 25 μM gemfibrozil", "result": "upregulated"},
      {"measurement": "Cln3 mRNA expression", "setting": "[7]", "result": "increase within 12 to 24 h"},
      {"measurement": "lysosomal proliferation (LysoTracker)", "setting": "[8]", "result": "upregulation"},
      {"measurement": "level of TPP1 protein (immunofluorescence)", "setting": "[9]", "result": "considerable increase"},
      {"measurement": "lysosomal genes mRNA (RT-PCR)", "setting": "[10]", "result": "upregulation"},
      {"measurement": "Cln1 mRNA expression", "setting": "[11]", "result": "increase within 12 to 24 h"}
    ]}
  ]
}
